Assay results reported in patent US5439933A (priority 1993, dated 1995).
≈ marks a conversion by molar mass, not a printed value. Like-named read-outs stand apart in the source and are kept apart here. Starred links: 1 amine or outer side, 2 acyl side, 3 side chain; linkers in the order of their positions; H or OH if unused. Positions of bridges follow the written chain, without caps; N, C: chain ends. Non-standard residues stand in square brackets, D forms with d. Residues, ends and D or L forms follow the SMILES beside them. Chains are numbered I, II in the order given. Actinocin(9to1) = Cc1c2oc3c(C)ccc(C(=O)[*:1])c3nc-2c(C(=O)[*:2])c(N)c1=O; NMeV = CN[C@H](C(=O)O)C(C)C; Sar = CNCC(=O)O

Tests used:
[1] = tested on: L1210 murine leukemia cells; experiment: Cell proliferation assay (cell counts), L1210; type: cell-based; conditions: Mus musculus; Table 6; L1210; read-out: IC50 L1210
Protocol: (§1) Tolytoxin and the other new scytophycin compounds are potent anticancer and antifungal agents. The cytotoxicity of tolytoxin and other new scytophycin compounds was determined using a cell proliferation assay, which tested the effect of the compounds on increases in cell numbers.
(§2) Cell lines were grown in plastic dishes (Falcon) in Eagle's basal medium supplemented with 5% newborn calf serum (KB), Fisher's medium supplemented with 10% horse serum (L1210), Dulbecco's modified Eagle's medium supplemented with 5% heat-inactivated fetal calf serum (LoVo), minimal essential medium supplemented with 2% heat-inactivated chicken serum (HEp-2), RPMI-1640 supplemented with 10% heat-inactivated fetal calf serum (T-47D, COLO-201) or 20% heat-inactivated fetal calf serum (HL-60, KATO-III), or McCoy's 5A supplemented with 10% heat-inactivated fetal calf serum (HBL-100). All cell culture media were supplemented with 50 μg/ml gentamycin sulfate. The cultures were incubated at 37° C. in a humidified atmosphere containing 5% carbon dioxide.
(§3) Cultures were exposed to graded concentrations of tolytoxin and reincubated for 72 hours in the presence of tolytoxin. Three dishes were used for each treatment. Cell numbers were determined by hemacytometer counts. The IC50 for each cell line was determined by plotting the logarithm of the tolytoxin concentration versus growth (cell number as a percentage of the control) of the treated cells.
(§4) The other new scytophycin compounds are also potent cytotoxins. For example, the IC50 of the scytophycins against KB human epidermoid carcinoma, LoVo human adenocarcinoma, and L1210 murine leukemia were determined using the cell proliferation assay described for tolytoxin.

[2] = tested on: LoVo human adenocarcinoma cells; experiment: Cell proliferation assay (cell counts), LoVo; type: cell-based; conditions: Table 6, read-out: IC50 LoVo
Protocol: as §1, §2, §3, §4

Saccharomyces cerevisae = experiment: Antifungal agar dilution; type: cell-based; conditions: Saccharomyces cerevisae; for IC50: Table 9
Protocol: (§5) The new scytophycins are also useful as antifungal agents. Antimicrobial activity was determined by the agar dilution method. Tolytoxin was dissolved in 95% ethanol for addition to cooled, molten agar. Nystatin was solubilized in DMSO and diluted in distilled water. Appropriate solvent controls were also prepared. Fungal cultures were grown on Saboraud dextrose agar. Assay plates were incubated for 48 hours post-inoculation. Yeasts and filamentous fungi were incubated at 25° C.
(§6) Activity was determined using the method described above for tolytoxin.

Candida albicans A26 = experiment: Antifungal agar dilution; type: cell-based
Protocol: as §5, §6

[3] = tested on: Thielaviopsis paradoxa 1215; experiment: Antifungal agar dilution; type: cell-based; conditions: Thielaviopsis paradoxa 1215; for IC50: Table 9
Protocol: as §5, §6

Sclerotium rofsii 2133 = experiment: Antifungal agar dilution; type: cell-based; conditions: Sclerotium rofsii 2133
Protocol: as §5, §6

[4] = tested on: Phytophthora nicotianae H729; experiment: Antifungal agar dilution; type: cell-based; conditions: Phytophthora nicotianae H729
Protocol: as §5, §6

[5] = tested on: KB human epidermoid carcinoma cells; experiment: Cell proliferation assay (cell counts), KB; type: cell-based; conditions: Table 6, KB, read-out: IC50 KB
Protocol: as §1, §2, §3, §4

[6] = tested on: Human ovarian carcinoma cells (SKOV3); experiment: cells; type: cell-based; conditions: SK-OV-3, Table 7, SKOV3, 48 hours, read-out: IC50 SKOV3
Protocol: Human ovarian carcinoma cells (SKOV3) and a subline made multi-drug resistant by slowly increasing vinblastine in the culture medium over the course of many passages (SKVLB) were grown in Earle's basal medium (BME) containing 10% fetal calf serum. The SKVLB cells were maintained in the presence of 1 µg/mL vinblastine. The multi-drug resistant cell line is resistant to adriamycin, vinblastine, actinomycin D, and colchicine.
Cell proliferation was estimated by measurement of protein content of the cultured cells, as described by Skehan et al. (1990). Cells were plated into 24-well plates at approximately 10% confluency in BME and were allowed to attach and recover for at least 24 hours. The cells were then treated with the scytophycins or appropriate control for 48 hours. After the incubation, the medium was removed from each well and cells fixed by addition of 10% (w/v) trichloroacetic acid (TCA) (4° C.). The cells were incubated at 4° C. for one hour and then washed five times with water to remove TCA. The TCA-fixed cells were then stained for 30 minutes with 0.4% (w/v) sulforhodamine B prepared in 1% acetic acid. Following the staining, the cell layers were washed four times with 1% acetic acid. The cell layer was dissolved in 10 mM unbuffered tris-hydroxymethylaminomethane base. Absorbance of the solution was determined at 564 nm. Antiproliferative activity is manifested as decreased production of cellular protein.

[7] = tested on: SKVLB (multi-drug resistant subline of SKOV3); experiment: cells; type: cell-based, Human; conditions: for IC50: Homo sapiens, 48 hours, read-out: IC50 SKVLB; for IC50 / Fold-Resistance: Table 7; for IC50 / resistance of the multi-drug resistant cell line: SKVLB; for Fold-Resistance: SKVLB vs SKOV3, 2880 min
cellular sugar uptake = conditions: side effect; cited from earlier work
actin microfilaments = conditions: by binding to the end unit of growing actin microfilaments; cited from earlier work
Penicillium notatum = experiment: Antifungal agar dilution; type: cell-based; conditions: Table 8; Penicillium notatum; 48 hours
Protocol: as §5

Rhizoctonia solani 1165 = experiment: Antifungal agar dilution; type: cell-based; conditions: Table 8; Rhizoctonia solani 1165; 48 hours
Protocol: as §5

Bipolaris incurvata 2118 = experiment: Antifungal agar dilution; type: cell-based; conditions: Table 8; Bipolaris incurvata 2118; 48 hours
Protocol: as §5

[8] = tested on: Calonectria critalarae 1809; experiment: Antifungal agar dilution; type: cell-based; conditions: Table 8; Calonectria critalarae 1809; 48 hours
Protocol: as §5

[9] = tested on: Colletotrichum coccodes 1809; experiment: Antifungal agar dilution; type: cell-based; conditions: Table 8; Colletotrichum coccodes 1809; 48 hours
Protocol: as §5

Aspergillus oryzae = experiment: Antifungal agar dilution; type: cell-based; conditions: Table 8, 48 hours
Protocol: as §5

[10] = tested on: Alternaria alternata 1715; experiment: Antifungal agar dilution; type: cell-based; conditions: Table 8; Alternaria alternata 1715; 48 hours
Protocol: as §5

[11] = tested on: Trichophyton mentagrophytes A23; experiment: Antifungal agar dilution; type: cell-based; conditions: Table 8; Trichophyton mentagrophytes A23; 48 hours
Protocol: as §5

[12] = tested on: Phyllosticta capitalensis 689-5; experiment: Antifungal agar dilution; type: cell-based; conditions: Table 8; Phyllosticta capitalensis 689-5; 48 hours
Protocol: as §5

[13] = Table 9, Candida albicans A26, read-out: IC50

Row | SMILES | IC50 [1] | IC50 [2] | IC50 (Saccharomyces cerevisae) | MIC (Candida albicans A26; [13]) | IC50 [3] | MIC (Sclerotium rofsii 2133; Table 9, read-out: IC50) | MIC ([4]; Table 9, read-out: IC50) | IC50 [5] | IC50 [6] | IC50 [7] | Fold-Resistance [7] | resistance of the multi-drug resistant cell line [7] | also measured
1 | COC1CC2C=CCC(CC(OC)C(CO)C(OC)CC(OC)C(C)C(C(C)C(O)C(C)CCC(=O)C(C)C(OC)C(C)/C=C/N(C)C=O)OC(=O)/C=C/C(C)=C/C1O)O2 (centres unmarked) [6-Hydroxy-7-O-methylscytophycin E, 6-hydroxy-7-O-methylscytophycin E] | 6.6 nM | 8 nM | 64 nM | 64 nM (≈ 54.5 ng/mL) | 32 nM | 16 nM (≈ 13.6 ng/mL) | 16 nM (≈ 13.6 ng/mL) | 12 nM | 100 nM | 300 nM | 3 | – | –
2 | COC1CC(OC)C2(CO2)C(OC)CC2CC=CC(CC(O)C(O)/C=C(C)/C=C/C(=O)OC(C(C)C(O)C(C)CCC(=O)C(C)C(OC)C(C)/C=C/N(C)C=O)C1C)O2 (centres unmarked) [6-Hydroxyscytophycin B] | 11 nM | 8.2 nM | 100 nM | 200 nM (≈ 167 ng/mL) | 32 nM | 16 nM (≈ 13.4 ng/mL) | 64 nM (≈ 53.5 ng/mL) | 3.6 nM | 50 nM | 150 nM | 3 | – | –
3 | COC1CC2CC=CC(CC(O)C/C=C(C)/C=C/C(=O)OC(C(C)C(O)C(C)CCC(=O)C(C)C(OC)C(C)/C=C/N(C)C=O)C(C)C(O)CC(OC)C1C)O2 (centres unmarked) [19-O-demethylscytophycin C] | 12.5 nM | 2.9 nM | 64 nM | 128 nM (≈ 101 ng/mL) | 16 nM | 4 nM (≈ 3.17 ng/mL) | 8 nM (≈ 6.34 ng/mL) | 9.2 nM | 25 nM | 25 nM | 1 | – | –
4 | COc1cccc2c1C(=O)c1c(O)c3c(c(O)c1C2=O)C[C@@](O)(C(=O)CO)C[C@@H]3O[C@H]1C[C@H](N)[C@H](O)[C@H](C)O1 [Adriamycin] | – | – | – | – | – | – | – | – | 400 nM | > 100000 nM | > 250 | resistant | –
5 | C=C1C(C)C2C(Cc3ccccc3)NC(=O)C23OC(=O)C=CC(O)CCCC(C)CC=CC3C1O (centres unmarked) [Cytochalasin B] | – | – | – | – | – | – | – | – | 5000 nM | 30000 nM | 6 | – | cellular sugar uptake (cellular sugar uptake): inhibits cellular sugar uptake; microfilament formation (actin microfilaments): inhibit microfilament formation
6 | C[C@@H]1[C@H](O)[C@@H](C)/C=C/C=C/CC/C=C/C=C/C=C/C=C/C(O[C@H]2O[C@H](C)[C@@H](O)[C@H](N)[C@@H]2O)CC2O[C@](O)(CC(O)C(O)CCC(O)CC(O)CC(O)CC(=O)O[C@H]1C)CC(O)C2C(=O)O (some centres unmarked) [Nystatin, reference compound] | – | – | – | – | – | – | – | – | – | – | – | – | MIC (Saccharomyces cerevisae; Table 8, 48 hours): 1 nM (≈ 0.926 ng/mL); MIC (Candida albicans A26; Table 8, Candids albicans A26, 48 hours): 1 nM (≈ 0.926 ng/mL); MIC ([3]; Table 8, 48 hours): 0.5 nM (≈ 0.463 ng/mL); MIC (Sclerotium rofsii 2133; Table 8, 48 hours): 0.125 nM (≈ 0.116 ng/mL); MIC ([4]; Table 8, 48 hours): 1 nM (≈ 0.926 ng/mL); MIC (Penicillium notatum): 0.125 nM (≈ 0.116 ng/mL); MIC (Rhizoctonia solani 1165): 0.0625 nM (≈ 0.0579 ng/mL); MIC (Bipolaris incurvata 2118): 0.25 nM (≈ 0.232 ng/mL); MIC [8]: 0.25 nM (≈ 0.232 ng/mL); MIC [9]: 0.25 nM (≈ 0.232 ng/mL); MIC (Aspergillus oryzae): 0.5 nM (≈ 0.463 ng/mL); MIC [10]: 0.5 nM (≈ 0.463 ng/mL); MIC [11]: 0.5 nM (≈ 0.463 ng/mL); MIC [12]: 0.125 nM (≈ 0.116 ng/mL)
7 | CC[C@]1(O)C[C@@H]2CN(CCc3c([nH]c4ccccc34)[C@@](C(=O)OC)(c3cc4c(cc3OC)N(C)[C@H]3[C@@](O)(C(=O)OC)[C@H](OC(C)=O)[C@]5(CC)C=CCN6CC[C@]43[C@@H]65)C2)C1 [Vinblastine] | – | – | – | – | – | – | – | – | 1 nM | 10000 nM | 10,000 | resistant | –
8 | Cc1c2oc3c(C)ccc(C(=O)N[C@@H]4C(=O)N[C@H](C(C)C)C(=O)N5CCC[C@H]5C(=O)N(C)CC(=O)N(C)[C@@H](C(C)C)C(=O)O[C@@H]4C)c3nc-2c(C(=O)N[C@@H]2C(=O)N[C@H](C(C)C)C(=O)N3CCC[C@H]3C(=O)N(C)CC(=O)N(C)[C@@H](C(C)C)C(=O)O[C@@H]2C)c(N)c1=O [actinomycin D] (I: T[dV]P[Sar][NMeV] / II: T[dV]P[Sar][NMeV]; ester I:1-I:C, II:1-II:C; linker I:N-II:N via Actinocin(9to1)) | – | – | – | – | – | – | – | – | – | – | – | resistant | –
9 | COc1cc2c(c(OC)c1OC)-c1ccc(OC)c(=O)cc1[C@@H](NC(C)=O)CC2 [colchicine] | – | – | – | – | – | – | – | – | – | – | – | resistant | –
